Experimental findings from patent US20070032477A1, “Pteridine derivatives useful for making pharmaceutical compositions” (priority 2003, published 2007) are described below.

One may read the IC50 as the concentration that gives 50% inhibition.

Assay [1] concerns mixed lymphocyte reaction (PBMC with allogeneic PBMC or Eppstein-Barr Virus-transformed human B cells as stimulator cells). Nature of the assay: Mixed lymphocyte reaction (MLR) assay. The settings on record: lowest concentration giving 50% suppression of the MLR; [3H]-thymidine. The format is cell-based. The protocol:
Pteridine derivatives were first dissolved (10 mM) in dimethylsulfoxide (hereinafter referred as DMSO) and further diluted in culture medium before use for the following in vitro experiments. The commercially available culture medium consisted of RPMI-1640+10% foetal calf serum (FCS). Some pteridine derivatives described in the previous examples (as indicated in table 1) were tested in the following mixed lymphocyte reaction (MLR) assay.
Peripheral blood mononuclear cells (hereinafter referred as PBMC) were isolated from heparinized peripheral blood by density gradient centrifugation over Lymphoprep (Nycomed, Maorstua, Norway). Allogeneic PBMC or Eppstein-Barr Virus-transformed human B cells [commercially available under the trade name RPM11788 (ATCC name CCL156)] which strongly express B7-1 and B7-2 antigens were used as stimulator cells after irradiation with 30 Gy. MLR was performed in triplicate wells. After 5 days incubation at 37° C., 1 μCi [^3H]-thymidine was added to each cup. After a further 16 hours incubation, cells were harvested and counted in a […]. Inhibition of proliferation by a compound (drug) described in some of the previous examples was counted using the formula: [formula] wherein cpm is the thymidine count per minute. The MLR assay is regarded by those skilled in the art as an in vitro analogue of the transplant rejection since it is based on the recognition of allogeneic major histocompatibility antigens on the stimulator leukocytes, by responding lymphocytes.

Assay [2] concerns production of TNF-α by PBMC in response to stimulation by LPS. Nature of the assay: TNF-α assay. The format is cell-based, human. Particulars: LPS 1 μg/ml, 72 hours, sandwich ELISA. The protocol: Peripheral blood mononuclear cells (herein referred as PBMC), in response to stimulation by lipopolysaccharide (hereinafter LPS), a gram-negative bacterial endotoxin, produce various […], in particular human TNF-α. Inhibition of the activation of PBMC can therefore be measured by the level of suppression of the production of TNF-α by PBMC in response to stimulation by LPS.
Such inhibition measurement was performed as follows: PBMC were isolated from heparinized peripheral blood by density gradient centrifugation over Lymphoprep (commercially available from Nycomed, Norway). LPS was then added to the PMBC suspension in complete medium (10^6 cells/ml) at a final concentration of 1 μg/ml. The pteridine derivative to be tested was added at different concentrations (0.1 μM, 1 μM and 10 μM) and the cells were incubated at 37° C. for 72 hours in 5% CO2. The supernatants were collected, then TNF-α concentrations were measured with respectively an anti-TNF-α antibody in a sandwich ELISA (Duo Set ELISA human TNFα, commercially available from R&D Systems, United Kingdom). The calorimetric reading of the ELISA was measured by a Multiskan RC plate reader (commercially available from ThermoLabsystems, Finland) at 450 nm (reference wavelength: 690 nm). Data analysis was performed with Ascent software 2.6. (also from ThermoLabsystems, Finland): a standard curve (recombinant human TNFα) was drawn and the amount (pg/ml) of each sample on the standard curve was determined.
The % suppression of human TNFα production by the pteridine derivatives of the invention (drugs) was calculated using the formula: [formula]
(In general: In an ELISA, binding on a coated surface is turned into a signal by an enzyme label.)

Where a name gives a salt, the structure may show the parent alone.

`COc1ccc(-c2cnc3nc(N)nc(N4CCN(c5ccncc5)CC4)c3n2)cc1OC` [Example 145, 2-amino-4-((4-pyridyl)-piperazin-1-yl)-6-(3,4-dimethoxyphenyl)pteridine]: the half-maximal inhibitory concentration (IC50) in assay [1] worked out at 3.5 µM; in assay [2], 4.4 µM. Compound `COc1ccc(-c2cnc3nc(N)nc(N4CCN(C(=O)Nc5ccc(Br)cc5)CC4)c3n2)cc1OC` [Example 196, 2-amino-4-(N-4-bromo-phenyl-carbamoyl-piperazin-1-yl)-6-(3,4-dimethoxyphenyl)pteridine] returned an IC50 in assay [1] of 0.1 µM. Still for that read-out and setting: with `COCC(=O)N1CCN(c2nc(N)nc3ncc(-c4ccc(OC)c(OC)c4)nc23)CC1` [Example 41, 2-amino-4-[(N-methoxyacetyl)-piperazin-1-yl]-6-(3,4-dimethoxyphenyl)pteridine] the figure was 0.5 µM; with `COc1ccc(-c2cnc3nc(N)nc(N4CCN(C(=O)[C@@H](N)CC(N)=O)CC4)c3n2)cc1OC` [Example 111, 2-amino-4-[N-[2-(S),4-diamino-4-oxobutanoyl]-piperazin-1-yl]-6-(3,4-dimethoxyphenyl)pteridine], 8.8 µM; with `COc1ccc(-c2cnc3nc(N)nc(N4CCN(C(=O)c5ccoc5)CC4)c3n2)cc1OC` [Example 47, 2-amino-4-[N-(3-furoylcarbonyl)-piperazin-1-yl]-6-(3,4-dimethoxyphenyl)pteridine], 0.3 µM. As for “2-amino-4-(1-(2-imidazol-1-yl-ethyl-piperazine)-6-(3,4-dimethoxyphenyl)pteridine [Example 155]”, in assay [1], it took 3.6 µM to reach half-maximal inhibition (IC50). For the compound `COc1ccc(-c2cnc3nc(N)nc(N4CCN(C(=O)CN(C)C)CC4)c3n2)cc1OC` [Example 113, 2-amino-4-[N-[4-(dimethylamino)acetyl]-piperazin-1-yl]-6-(3,4-dimethoxy-phenyl)pteridine], in assay [2], the half-maximal inhibitory concentration (IC50) is 3.2 µM.

`COc1ccc(-c2cnc3nc(N)nc(N4CCN(C(C)=O)CC4)c3n2)cc1OC` [Example 8, 2-amino-4-(N-acetylpiperazin-1-yl)-6-(3,4-dimethoxyphenyl)pteridine]: in assay [2], half-maximal inhibition (IC50) was put at 0.4 µM. `COc1ccc(-c2cnc3nc(N)nc(N4CCN(CC5OCCO5)CC4)c3n2)cc1OC` [Example 170, 2-amino-6-(3,4-dimethoxyphenyl)-4-(1,3-dioxolan-2-yl-methylpiperazin-1-yl)pteridine] showed a concentration for half-maximal inhibition (IC50) in assay [2] of 0.4 µM. Still for that read-out and setting: with `CCOC(=O)CN1CCN(c2nc(N)nc3ncc(-c4ccc(OC)c(OC)c4)nc23)CC1` [Example 135, 2-amino-4-(2-(piperazin-1-yl)-acetic acid ethyl ester)-6-(3,4-dimethoxyphenyl)pteridine] the figure was 0.27 µM. `CC(=O)N1CCN(c2nc(N)nc3ncc(-c4ccccc4)nc23)CC1` [Example 55, 2-amino-4-(N-acetylpiperazin-1-yl)-6-phenyl-pteridine] displayed an IC50 in assay [1] of 5.1 µM. On to `COc1ccc(-c2cnc3nc(N)nc(N4CCN(C(=O)NCc5ccccc5)CC4)c3n2)cc1OC` [Example 104, 2-amino-4-(N-benzylcarbamoyl-piperazin-1-yl)-6-(3,4-dimethoxyphenyl)pteridine], for which, in assay [1], inhibition was half-maximal at 0.018 µM (IC50).

As for `CCN(C(=O)N1CCN(c2nc(N)nc3ncc(-c4ccc(OC)c(OC)c4)nc23)CC1)c1ccccc1` [Example 118, 2-amino-4-(N-ethyl-N-phenyl-carbamoyl-piperazin-1-yl)-6-(3,4-dimethoxyphenyl)pteridine], the 50% inhibitory concentration (IC50) in assay [2] was found to be 0.07 µM. Compound `COc1ccc(-c2cnc3nc(N)nc(N4CCN(CCCN(C)C)CC4)c3n2)cc1OC` [Example 182, 2-amino-6-(3,4-dimethoxyphenyl)-4-(4-(3-dimethylaminopropyl)-piperazin-1-yl)pteridine trihydrochloride salt] registered an IC50 in assay [2] (Homo sapiens) of 4.8 µM.

`COc1ccc(-c2cnc3nc(N)nc(N4CCN(Cc5cccnc5)CC4)c3n2)cc1OC` [Example 156] showed an IC50 in assay [2] of 0.4 µM. With `COc1ccc(-c2cnc3nc(N)nc(N4CCN(C(=O)Nc5ccc(C(F)(F)F)cc5)CC4)c3n2)cc1OC` [Example 194, 2-amino-4-(N-4-trifluoromethyl-phenyl-carbamoyl-piperazin-1-yl)-6-(3,4-dimethoxyphenyl)pteridine], in assay [1], the 50% inhibitory concentration (IC50) was found to be 0.052 µM. `COc1ccc(-c2cnc3nc(N)nc(N4CCN(CCN(C)C)CC4)c3n2)cc1OC` [Example 181, 2-amino-6-(3,4-dimethoxyphenyl)-4-(4-(2-dimethylaminoethyl)-piperazin-1-yl)-pteridine trihydrochloride salt] gave a 50% inhibitory concentration (IC50) in assay [2] (Homo sapiens) of 8.8 µM. `COCCN1CCN(c2nc(N)nc3ncc(-c4ccc(OC)c(OC)c4)nc23)CC1` [Example 122, 2-amino-4-(1-(2-methoxyethyl)piperazino)-6-(3,4-dimethoxyphenyl)pteridine] had an IC50 in assay [1] of 0.8 µM. As for `COc1ccc(-c2cnc3nc(N)nc(N4CCN(C(=O)Nc5cccc(I)c5)CC4)c3n2)cc1OC` [Example 197, 2-amino-4-(N-3-iodo-phenyl-carbamoyl-piperazin-1-yl)-6-(3,4-dimethoxyphenyl)pteridine], 0.04 µM corresponded to half-maximal inhibition in assay [1] (IC50). The same measure, in the same setting: the figure for `COc1ccc(-c2cnc3nc(N)nc(N4CCN(c5cccc(C)c5)CC4)c3n2)cc1OC` [Example 175, 2-amino-6-(3,4-dimethoxyphenyl)-4-((3-methylphenyl)-piperazin-1-yl)pteridine] is 0.4 µM. In assay [2], `COc1ccc(-c2cnc3nc(N)nc(N4CCN(C(=O)c5cc(F)c(Cl)nc5Cl)CC4)c3n2)cc1OC` [Example 40] yielded a half-inhibitory concentration (IC50) of 0.7 µM. Compound `COC(=O)c1ccc(C(=O)N2CCN(c3nc(N)nc4ncc(-c5ccc(OC)c(OC)c5)nc34)CC2)cc1` [Example 112, 2-amino-4-[N-[4-(methoxycarbonyl)benzoyl]-piperazin-1-yl]-6-(3,4-dimethoxy-phenyl)pteridine] showed an IC50 in assay [2] of 0.28 µM. With `COc1cc(-c2cnc3nc(N)nc(N4CCN(c5ccc(C)cc5)CC4)c3n2)ccc1OC(C)C` [Example 208], in assay [1], the IC50 stood at 4.4 µM. Take `COc1ccc(-c2cnc3nc(N)nc(N4CCN(Cc5ccc(C)cc5)CC4)c3n2)cc1OC` [Example 140, 2-amino-4-((4-methylbenzyl)piperazin-1-yl)-6-(3,4-dimethoxyphenyl)pteridine]: inhibition in assay [2] was half-maximal at 1.3 µM (IC50). Compound `CC(=O)N1CCN(c2nc(N)nc3ncc(-c4ccc(Cl)cc4)nc23)CC1` [Example 58, 2-amino-4-(N-acetylpiperazin-1-yl)-6-(4-chloro-phenyl)pteridine] gave a concentration for half-maximal inhibition (IC50) in assay [1] of 7.6 µM. Compound `COc1ccc(-c2cnc3nc(N)nc(N4CCN(Cc5ccc6c(c5)OCO6)CC4)c3n2)cc1OC` [Example 143, 2-amino-4-(piperonyl-piperazin-1-yl)-6-(3,4-dimethoxyphenyl)pteridine] showed an IC50 in assay [2] of 0.8 µM.

`COc1ccc(-c2cnc3nc(N)nc(N4CCN(Cc5ccc(F)cc5)CC4)c3n2)cc1OC` [Example 138, 2-amino-4-((4-fluorobenzyl)piperazin-1-yl)-6-(3,4-dimethoxyphenyl)pteridine]: the IC50 in assay [1] was found to be 6 µM. Consider `COc1ccc(-c2cnc3nc(N)nc(N4CCN(C(=O)[C@@H]5CCCN5)CC4)c3n2)cc1OC` [Example 62, 2-amino-4-[N-(pyrrolidin-2-(S)-yl)carbonyl-piperazin-1-yl]-6-(3,4-dimethoxy-phenyl)pteridine], for which, in assay [2], the half-inhibitory concentration (IC50) came to 7.6 µM.
